Data on six compounds can be found in patent US20030228402A1, “Compositions and methods for preservation of food” (priority 2002, published 2003).

Where two headings read alike, the source gives them in different places.

Data set [1] can be described thus: Solution and suspension levels of terpenes in water. The source says:
The terpene and water were blended in a household blender for 30 seconds.
Examples of these levels are as follows.

For the next data set, the system named is E. coli strain AW574. The data set is described as follows: E. coli growth (O.D.) with single or combined terpenes. Type of data set: cell-based. The conditions noted are these: single terpene 2 μMol; 24 hours. The procedure:
E. coli strain AW574 was grown in tryptone broth to an exponential growth phase (O.D. between 0.4 and 1.0 at 590 nm). One tenth of this growth was inoculated to 10 ml of tryptone broth followed by the addition of individual terpenes or as indicated on Table 8; then incubated for 24 hours at 35-37° C., and the O.D. determined in each tube. The concentration of terpenes was 1 or 2 μMol. Each treatment was repeated in triplicate. The results are expressed as percentage bacterial growth as compared to the control treatment.
E. coli strain AW574 was grown in tryptone broth to an exponential growth phase (O.D. between 0.4 and 1.0 at 590 nm).
One tenth of this growth was inoculated to 10 ml of tryptone broth followed by the addition of individual terpenes or as indicated on Table 18; then incubated for 24 hours at 35-37° C. and the O.D. determined in each tube.
The concentration of terpenes was 1 or 2 μMol. Each treatment was repeated in triplicate.
The results are expressed as percentage bacterial growth as compared to the control treatment.

The subject of data set [2] is E. coli strains AW574 or AW405. The data set is described as follows: Lysis of E. coli by terpenes (galactosidase activity, ONPG). Type of data set: cell-based. The source says:
Lysis of the cell membrane was monitored by the determination of galactosidase activity. B-galactosidase is a well-characterized cytosolic enzyme in bacteria. This enzyme is inducible in the presence of isopropyl-1-thiogalactosidase (IPTG) and assayed calorimetrically with substrate o-nitro-phenyl-B-D-galactoside (ONPG). ONPG is cleaved to release o-nitrophenol which has a peak absorbance at 420 nm.
Since intact E. coli is impermeable to both ONPG and the enzyme, the cells have to be lysed prior to enzymatic assay. Therefore, the ability of terpenes to lyse E. coli can be measured with this enzymatic assay and compared to known lysing agents.
The procedure used was as follows: E. coli strains AW574 or AW405 were cultured overnight in 10 ml tryptone broth with […] at 35° C. Cells were allowed to grow after an absorbance equal to 0.9 was reached.
Cells were harvested, washed with phosphate buffer and resuspended to an absorbance equal to 0.5.
0.1 ml of the bacteria culture was added to 0.9 ml of buffer, warmed to 30° C., and then 80 μl of terpenes (85% terpenes and 15% polysorbate-80), 80 μl water (background), or 40 μl chloroform plus 40 μl 1% SDS in water (positive control) were added.
After the addition of the lysing agents the tubes were mixed for 10 seconds, and 0.2 ml of ONPG (4 mg/ml water) was added, then incubated for 5 minutes. The 5 enzyme activity was stopped with 0.5 ml of 1 M sodium carbonate. After being centrifuged for 3 minutes at 1,500×g, supernatant was transferred to cuvettes and read at 420 nm.
The relative degree of lysis caused by terpenes was calculated as follows: 100× (O.D. terpenes—O.D. water)/(O.D. chloroform—O.D. water).

The test system of another data set is Mycoplasma pneumoniae. Briefly: Killing of Mycoplasma pneumoniae, color change of SP4 medium. Conditions: for killing effect (color change of first tube): three days after the 10-fold dilution. Type of data set: cell-based. The method, then: This mixture was then used to make concentrations of 2500 ppm in sterile phosphate buffer saline (PBS) by blending the mixture in PBS for 40 seconds. […] PBS containing 25 ppm Tween® 80 or PBS alone was used to treat cells suspension as controls. […] After 40 hours of treatment, 10-fold serial dilution was performed to 10 (−10) by first taking 0.1 mL of the treated culture suspension was added into 0.9 mL of fresh SP4 (Whitcomb (1983); SP4 media is commercially available (Remel, Lenexa, Kans., USA)). All the tubes were then incubated at 37° C., and a color change of the medium was used for the indication of the cells that either were killed or survived from the treatment. Color change was from red to yellow because Mycoplasma pneumoniae produces acid during its growth. All the treatments were performed in duplicate.

The subject of another data set is erythrocytes. The data set is classed as cell-based. Conditions: 20 min. The procedure:
These mixtures were incubated for 20 minutes.

The nature of data set [3]: Break down of terpenes in the presence of oxygen / potency of solution. The data set is classed as physicochemical. The conditions noted are these: 500 ppm solution. From the text: Terpenes will break down in the presence of oxygen. Citral, for example, is an aldehyde and will decay (oxygenate) over a period of days.
Another data set has as its system E. coli. The conditions noted are these: cited from earlier work.
Where [4] appears, read: 62.5, 125 and 250 ppm, 40 hours treatment.

As for `CC(C)=CCC/C(C)=C/CO` [Geraniol], the “Level (maximum level of terpene solubilized, solution level)” value (“Level” for short) in data set [1] stood at 500 ppm. The “% growth (bacterial growth as compared to the control treatment)” value (“% growth” below) in the data set on E. coli strain AW574 is reported as 54.00%. Besides, the Relative lysis % is on record as 2.4% in data set [2] (3.63 μM); 4% in data set [2] (36.3 μM); 34% in data set [2] (363 μM); 98% in data set [2] (3,630 μM); 96% in data set [2] (36,300 μM).

Terpeniol: in data set [1], the “Level” value was 500 ppm.

For the compound `C=C(C)C1CC=C(C)C(=O)C1` (stereo not shown) [Carvone], the “Level” value in data set [1] (true solution in water without surfactant, high shear mixing) is 500 ppm. Further, in the data set on E. coli strain AW574, the “% growth” value amounted to 63.00%. Further, the Relative lysis % in data set [2] (404 μM) worked out at 3.2%; in data set [2] (4,040 μM) it was 22%; in data set [2] (40,400 μM), 54%.

In the case of L-carvone, in the data set with Mycoplasma pneumoniae (setting [4]), the “killing effect (color change of first tube)” value is on record as “no killing effects”. Also, the “tubes of the 10-fold dilution series that changed color” value with Mycoplasma pneumoniae (62.5, 125 and 250 ppm, 6 days after the 10-fold dilution) was “second and third tube”.

Turning to `CC(=O)/C=C/C1=C(C)CCCC1(C)C` [b-ionone], in data set [1], the “Level” value was 500 ppm. In addition, the “% growth” value in the data set on E. coli strain AW574 is given as 84.00%. For the same compound, the “killing effect (color change of first tube)” value in the data set with Mycoplasma pneumoniae (setting [4]) is “killing effect”. In the data set with Mycoplasma pneumoniae (62.5 ppm, 6 days after the 10-fold dilution), the “tubes of the 10-fold dilution series that changed color” value is given as “only the first tube”. In the data set on Mycoplasma pneumoniae (125 and 250 ppm, 40 hours treatment, 6 days after the 10-fold dilution), the “killing of all cells” value was “may have completely killed all cells”. Further, the Relative lysis % was 1.3% in data set [2] (0.0308 μM); 4.78% in data set [2] (0.308 μM); 23% in data set [2] (3.08 μM); 44% in data set [2] (30.8 μM); 52% in data set [2] (308 μM).

Turning to `CC(C)=CCCC(C)=CC=O` [Citral, 3,7-dimethyl-2,6-octadien-1-al], the “concentration that will lyse human erythrocytes” value in the data set with erythrocytes is “approximately 1000 ppm”. In data set [3], the “time in which the solution will lose half its potency” value was 2-3 weeks. Further, the “citral in growth media with bactericidal effect” value in the data set on E. coli is 0.08%.
